Read-outs that look alike come from different tables or passages of the source.
What was measured:
human mu opioid receptor [1] = target: T1, human mu opioid receptor (Homo sapiens, UniProt P35372); test: Radioligand binding assay on human mu opioid receptor
T1 construct: host or cells: CHO-K1

human mu opioid receptor [2] = target: T1, human mu opioid receptor; test: biochemical; conditions: read-out: intrinsic activity (IA), bound [35S]GTPγS relative to DAMGO (IA=100)
[3] = test system: loperamide-induced delayed gastric emptying; test: Rat gastric emptying assay (reversal of loperamide-induced delayed gastric emptying); format: in vivo; conditions: administered orally, loperamide 1 mg/kg s.c., gastric emptying model

T1 sequence (P35372 whole entry): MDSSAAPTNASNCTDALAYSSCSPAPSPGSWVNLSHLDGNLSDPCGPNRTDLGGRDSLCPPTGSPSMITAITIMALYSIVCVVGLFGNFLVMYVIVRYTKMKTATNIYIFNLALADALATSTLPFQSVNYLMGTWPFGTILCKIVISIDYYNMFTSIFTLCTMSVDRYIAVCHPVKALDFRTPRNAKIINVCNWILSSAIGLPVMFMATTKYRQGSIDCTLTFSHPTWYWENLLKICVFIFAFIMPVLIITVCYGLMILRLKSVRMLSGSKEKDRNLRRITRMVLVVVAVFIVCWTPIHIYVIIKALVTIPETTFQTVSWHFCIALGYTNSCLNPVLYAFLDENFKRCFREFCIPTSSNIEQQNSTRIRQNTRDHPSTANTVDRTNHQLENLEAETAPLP

| Compound | Ki (human mu opioid receptor [1]) [nM] | Emax (human mu opioid receptor [2]) [%] | ID50, dose required for 50% reversal of the effects of loperamide [3] [mg/kg] | Ki (human mu opioid receptor [1]; displacement of [3H]-Diprenorphine 0.5 nM, CHO-K1 cell membranes, read-out: pKi at the human mu opioid receptor (converted)) [nM] |
| --- | --- | --- | --- | --- |
| CCC(CC)CN(CCN1[C@@H]2CC[C@H]1C[C@@H](c1cccc(C(N)=O)c1O)C2)C(=O)[C@@H](O)CO [Example 1, 3-endo-(8-{2-[((S)-2,3-Dihydroxypropionyl)-(2-ethylbutyl)-amino]ethyl}-8-azabicyclo[3.2.1]oct-3-yl)-2-hydroxybenzamide] | 0.1 | -1 | 0.11 |  |
| CCC(CC)CN(CCN1[C@@H]2CC[C@H]1C[C@@H](c1cccc(C(N)=O)c1O)C2)C(=O)CO [Example 2, 3-endo-(8-2-[(2-Ethylbutyl)-(2-hydroxyacetyl)amino]-ethyl-8-azabicyclo[3.2.1]oct-3-yl)-2-hydroxybenzamide] |  |  |  | 0.1 |
| NC(=O)c1cccc(C2CC3CCC(C2)N3CCN(CC2CCC(F)(F)CC2)C(=O)CO)c1O (stereo not drawn) [Example 4, 3-endo-(8-2-[(4,4-Difluorocyclohexylmethyl)-(2-hydroxyacetyl)-amino]ethyl-8-azabicyclo[3.2.1]oct-3-yl)-2-hydroxybenzamide] |  |  | 0.014 |  |
| CC(C)(C)CN(CCN1[C@@H]2CC[C@H]1C[C@@H](c1cccc(C(N)=O)c1O)C2)C(=O)[C@@H](O)CO [Example 6, 3-endo-(8-{2-[((S)-2,3-Dihydroxypropionyl)-(2,2-dimethylpropyl)amino]ethyl}-8-azabicyclo[3.2.1]oct-3-yl)-2-hydroxybenzamide] | 0.251 | 9 | 0.42 |  |

From patent publication US9199993B2, “8-azabicyclo[3.2.1]octyl-2-hydroxybenzamide compounds as mu opioid receptor antagonists” (THERAVANCE BIOPHARMA R&D IP, LLC, priority 2007, dated 2015)
